The values below come from patent publication US11634458B2, “Peptides and compositions for use in cosmetics and medicine” (LIPOTRUE, S.L., priority 2018, dated 2023).

Assay [1] concerns human skeletal muscle cells. In words: Calcium mobilization assay (Fluo-4 NW) after 60 mM KCl. It counts as cell-based. Conditions: 48 hours, vs untreated control. As for the experimental part: The potential of said peptide Ac-SEQ ID NO: 8-NH2 to reduce calcium mobilization on human skeletal muscle cells was evaluated in vitro with Fluo-4 NW Calcium Assay Kit (ThermoFisher Scientific, MA USA). Briefly, human skeletal muscle myoblasts were seeded in quintuplicates in a black 96-well plate, clear bottom, at a density of 1×10^4 cells/well and maintained at standard culture conditions (37° C., 95% humidity, 5% CO2) for 48-72h. Myoblast differentiation to myocyte was then induced with specific differentiation medium (SKM-D medium+1% a/a) and monitored for 7 more days. Differentiated cells were treated with non-cytotoxic concentrations of peptide Ac-SEQ ID NO: 8-NH2 (0.01 mg/mL, 0.05 mg/mL and 0.1 mg/mL) for additional 48 hours.
Once incubation was finished, cell culture medium was replaced by 100 μl of Dye loading solution and the plate was kept on the incubator for 30 minutes. Dye solution was then replaced by assay buffer prior to calcium measurement using FLUOstar Omega instrument (BMG Labtech, Germany). For appropriate kinetic measurement, a pre-stimulus phase of 10 seconds was set to determine the baseline signal before induction of calcium influx by addition of 60 mM KCl. Post-stimulus phase was set at 90 seconds, with readings every 0.1 seconds at 494/516 nm (excitation/emission).
The following steps were performed for data analysis: 1) Calculation of a mean kinetic curve for each condition; 2) determination of maximum fluorescent signal for each curve after stimulation with KCl; 3) calculation of the fold change increase versus baseline; 4) normalization of results obtained for each condition (each peptide concentration) versus the one obtained for the control (untreated cells).

A further assay deals with myosin heavy chain. The assay is described as follows: Myosin heavy chain protein decrease by immunofluorescence. Conditions: vs non-treated cells; for reduction of myosin heavy chain protein levels: 48 hours. The assay is classed as cell-based, human. As for the experimental part:
The potential of said peptide Ac-SEQ ID NO: 8-NH2 to decrease the expression of the protein myosin heavy chain in human skeletal muscle cells was evaluated in vitro by immunofluorescence using a specific antibody against this protein (Biotechne, USA) followed by a secondary fluorescent antibody (Thermofisher, USA). Briefly, human skeletal muscle myoblasts were seeded onto coverslips in SKM-M medium (Tebu-Bio, France) at a density of 3×10^4 cells/cm^2 and incubated overnight at standard culture conditions (37° C., 95% humidity, 5% CO2). Myoblast differentiation to myocyte was then induced with specific differentiation medium (Skeletal Muscle Cell Differentiation Medium, SKM-D medium) and monitored for 7 more days. Differentiated cells were treated with non-cytotoxic concentrations of peptide Ac-SEQ ID NO: 8-NH2 (0.05 mg/mL and 0.5 mg/mL) for additional 48 hours.
Once incubation was finished, cells were fixed with 4% PFA and permeabilized using 0.1% (v/v) Triton (Sigma, USA). Myosin was then stained with 0.5 mg/ml myosin heavy chain antibody during 2 h at room temperature. After proper washing, actin protein was labelled with 50 μg/ml Phalloidin (red) (Sigma, USA) for 1 h and, after washing, cells were stained with 4 μg/ml of the secondary antibody Goat anti-Mouse IgG for 1 h. Finally, nuclei were stained with 3.5 μg/ml Hoescht marker for 10 min (Sigma, USA).
Microscopic images were acquired using the 5× and 10× objectives. Three replicates were used for each condition and images of three to four fields of each coverslip were acquired using the same settings.
Images were analyzed using Image J software. Shortly, threshold was adjusted to select myosin and mean fluorescent was measured. The number of positive cells was counted using DAPI staining. Myosin mean fluorescent intensity was divided by the number of myosin-positive cells. Finally, all data was normalized as follows to obtain the % of myosin compared to non-treated cells: % vs. control=(fluorescence per cell in treated wells/fluorescence per cell in non-treated wells)×100.

Assay [2] concerns human muscle cells and motor neurons derived from hiPSC co-cultures. In words: Contraction frequency in human muscle cell / hiPSC motor neuron co-cultures. The assay is classed as cell-based. As for the experimental part:
The potential of said peptide Ac-SEQ ID NO: 8-NH2 to modulate the contraction frequency was evaluated in vitro using human muscle cells and motor neurons derived from hiPSC co-cultures, by means of live-imaging video of localized contractile muscle fibers recorded with an InCell 2200 automated microscope during 60 seconds, before and after treatment (after treatment, at each of the established timepoints).
Human muscle cells were cultivated at a density of 1×10^6 cells in T75 cm^2 flasks and then transferred to 96 well plates for differentiation. Motor neurons derived from hiPSC were transferred onto the 96 well plates containing the muscle cells in a differentiation medium. Co-cultures were maintained for 10 days in order to generate neurons junctions with muscle fibers. Spontaneous contractions were observed within 5 days.
Co-cultures were then treated with control medium (basal), 1 μM α-bungarotoxin, 0.5 mg/mL of acetyl hexapeptide-8 as a benchmark reference and 0.05 or 0.1 mg/mL of peptide Ac-SEQ ID NO: 8-NH2. Movies of co-cultures were recorded during 60 seconds before treatment and, after 30 minutes of incubation, movies were recorded again during 60 seconds. The culture plate was incubated again for 1 h 30 min with compounds (2 h of total incubation), and movies of co-cultures were recorded again during 60 seconds. The culture plate was incubated again for a total of 24 h with compounds and at the end of the incubation movies were recorded again during 60 seconds. Finally, compounds were washed out and a last recording after 24 h from said washed out of the compounds was done to assess an eventual recovery of muscle contractions (recovery).
Frequencies of contraction were calculated before and after each incubation. For each culture condition, 6 wells were analyzed.

On to “Ac-His-Ala-Leu-Arg-Phe-Trp-NH2 [Ac-SEQ ID NO: 8-NH2]”, for which the results for the “reduction of calcium influx” value in assay [1] (0.01 mg/mL), in assay [1] (0.05 mg/mL) and in assay [1] (0.1 mg/mL) were −6%, −20% and −30%, respectively. The “reduction of myosin heavy chain protein levels” value was −26% in the assay on myosin heavy chain (0.05 mg/mL) and −38% with myosin heavy chain (0.5 mg/mL). In the assay with myosin heavy chain (0.05 mg/mL), the “myosin heavy chain protein levels (representative images, FIG. 5)” value is listed as “reduction of myosin heavy chain protein levels”. Further, the “muscle contraction frequency with regard to the basal non-treated cells” value in assay [2] (0.05 mg/mL, 24 h incubation) is 23%; in assay [2] (0.05 mg/mL, after 30 min) it was 25%; in assay [2] (0.05 mg/mL, recovery 24 h after washout) it was 65%; in assay [2] (0.1 mg/mL, 24 h incubation), 10%; in assay [2] (0.1 mg/mL, after 30 min), 18%; in assay [2] (0.1 mg/mL, recovery 24 h after washout) it was 35%.
